Experiments:
Type in all cases: in vivo
[1] = test system: Amaranthus palmeri (AMAPA); assay: Pre-emergence herbicide test, glasshouse pots; conditions: 1000 g/ha, evaluated after 13 days
[2] = test system: Echinochloa crus-galli (ECHCG); assay: Pre-emergence herbicide test, glasshouse pots; conditions: 1000 g/ha, evaluated after 13 days
Setaria faberi (SETFA) [3] = assay: Post-emergence herbicide test, glasshouse pots; conditions: sprayed after 8 days cultivation, 1000 g/ha, evaluated after 13 days
Description: (§1) Seeds of a variety of test species are sown in standard soil in pots (Setaria faberi (SETFA), Echinochloa crus-galli (ECHCG), Ipomoea hederacea (IPOHE), Amaranthus palmeri (AMAPA), Zea mays (ZEAMX), Amaranthus retoflexus (AMARE), Solanum nigrum (SOLNI), Lolium perenne (LOLPE), Abutilon theophrasti (ABUTH)). After 8 days cultivation under controlled conditions in a glasshouse (at 24° C./16° C., day/night; 14 hours light; 65% humidity), the plants are sprayed with an aqueous spray solution derived from the formulation of the technical active ingredient in acetone/water (50:50) solution containing 0.5% Tween 20 (polyoxyethelyene sorbitan monolaurate, CAS RN 9005-64-5). Compounds are applied at 1000 g/ha unless otherwise stated. The test plants are then grown in a glasshouse under controlled conditions in a glasshouse (at 24° C./16° C., day/night; 14 hours light; 65% humidity) and watered twice daily. After 13 days the test is evaluated for the percentage damage caused to the plant. The biological activities are shown in the following table on a five-point scale (5=81-100%; 4=61-80%; 3=41-60%; 2=21-40%; 1=0-20%).

[4] = test system: Amaranthus retoflexus (AMARE); assay: Post-emergence herbicide test, glasshouse pots; conditions: sprayed after 8 days cultivation, 1000 g/ha, evaluated after 13 days
Description: as §1

[5] = test system: Ipomoea hederacea (IPOHE); assay: Post-emergence herbicide test, glasshouse pots; conditions: sprayed after 8 days cultivation, 1000 g/ha, evaluated after 13 days
Description: as §1

[6] = test system: Echinochloa crus-galli (ECHCG); assay: Post-emergence herbicide test, glasshouse pots; conditions: sprayed after 8 days cultivation, 1000 g/ha, evaluated after 13 days
Description: as §1

[7] = test system: Amaranthus palmeri (AMAPA); assay: Post-emergence herbicide test, glasshouse pots; conditions: sprayed after 8 days cultivation, 1000 g/ha, evaluated after 13 days
Description: as §1

Zea mays (ZEAMX) [8] = assay: Post-emergence herbicide test, glasshouse pots; conditions: sprayed after 8 days cultivation, 1000 g/ha, evaluated after 13 days
Description: as §1

Setaria faberi (SETFA) [9] = assay: Pre-emergence herbicide test, glasshouse pots; conditions: 1000 g/ha, evaluated after 13 days
Zea mays (ZEAMX) [10] = assay: Pre-emergence herbicide test, glasshouse pots; conditions: 1000 g/ha, evaluated after 13 days
[11] = test system: Ipomoea hederacea (IPOHE); assay: Pre-emergence herbicide test, glasshouse pots; conditions: 1000 g/ha, evaluated after 13 days
[12] = test system: Amaranthus retoflexus (AMARE); assay: Pre-emergence herbicide test, glasshouse pots; conditions: 1000 g/ha, evaluated after 13 days

| Structure (SMILES) | AMAPA, percentage damage caused to the plant (five-point scale) [1] | ECHCG, percentage damage caused to the plant (five-point scale) [2] | SEFTA, percentage damage caused to the plant (five-point scale) (Setaria faberi (SETFA) [3]) | AMARE, percentage damage caused to the plant (five-point scale) [4] | IPOHE, percentage damage caused to the plant (five-point scale) [5] | ECHCG, percentage damage caused to the plant (five-point scale) [6] | AMAPA, percentage damage caused to the plant (five-point scale) [7] | ZEAMX, percentage damage caused to the plant (five-point scale) (Zea mays (ZEAMX) [8]) | SEFTA, percentage damage caused to the plant (five-point scale) (Setaria faberi (SETFA) [9]) | ZEAMX, percentage damage caused to the plant (five-point scale) (Zea mays (ZEAMX) [10]) | IPOHE, percentage damage caused to the plant (five-point scale) [11] | AMARE, percentage damage caused to the plant (five-point scale) [12] |
| --- | --- | --- | --- | --- | --- | --- | --- | --- | --- | --- | --- | --- |
| CCn1cc(-c2ccc(Cl)cc2)c(=O)c(C(=O)O)c1-c1ccc(Cl)c(Cl)c1 [Compound 1, 5-(4-chlorophenyl)-2-(3,4-dichlorophenyl)-1-ethyl-4-oxo-pyridine-3-carboxylic acid] | 1 (1=0-20%) | 5 (5=81-100%) | 4 (4=61-80%) | 3 (3=41-60%) | 3 (3=41-60%) | 4 (4=61-80%) | 3 (3=41-60%) | 3 (3=41-60%) | 5 (5=81-100%) | 1 (1=0-20%) | 3 (3=41-60%) | 0 |
| CCn1cc(-c2ccc(Cl)cc2F)c(=O)c(C(=O)O)c1-c1ccc(Cl)c(Cl)c1 [Compound 2, 5-(4-chloro-2-fluoro-phenyl)-2-(3,4-dichlorophenyl)-1-ethyl-4-oxo-pyridine-3-carboxylic acid] | 5 (5=81-100%) | 5 (5=81-100%) | 4 (4=61-80%) | 4 (4=61-80%) | 3 (3=41-60%) | 4 (4=61-80%) | 5 (5=81-100%) | 4 (4=61-80%) | 5 (5=81-100%) | 3 (3=41-60%) | 3 (3=41-60%) | 1 (1=0-20%) |
| CCn1cc(-c2cc(OC(F)(F)F)ccc2F)c(=O)c(C(=O)O)c1-c1ccc(Cl)c(Cl)c1 [Compound 5, 2-(3,4-dichlorophenyl)-1-ethyl-5-[2-fluoro-5-(trifluoromethoxy)phenyl]-4-oxo-pyridine-3-carboxylic acid] | 4 (4=61-80%) | 5 (5=81-100%) | 4 (4=61-80%) | 4 (4=61-80%) | 4 (4=61-80%) | 4 (4=61-80%) | 4 (4=61-80%) | 4 (4=61-80%) | 5 (5=81-100%) | 4 (4=61-80%) | 4 (4=61-80%) | 3 (3=41-60%) |
| CCn1cc(-c2cc(C(=O)OC(C)C)c(Cl)cc2F)c(=O)c(C(=O)O)c1-c1ccc(Cl)c(Cl)c1 [Compound 6, 5-(4-chloro-2-fluoro-5-isopropoxycarbonyl-phenyl)-2-(3,4-dichlorophenyl)-1-ethyl-4-oxo-pyridine-3-carboxylic acid] | 5 (5=81-100%) | 5 (5=81-100%) | 5 (5=81-100%) | 5 (5=81-100%) | 3 (3=41-60%) | 5 (5=81-100%) | 5 (5=81-100%) | 4 (4=61-80%) | 5 (5=81-100%) | 5 (5=81-100%) | 4 (4=61-80%) | 5 (5=81-100%) |
| CCn1cc(-c2cc(OC(F)(F)F)ccc2Cl)c(=O)c(C(=O)O)c1-c1ccc(Cl)c(Cl)c1 [Compound 7, 5-[2-chloro-5-(trifluoromethoxy)phenyl]-2-(3,4-dichlorophenyl)-1-ethyl-4-oxo-pyridine-3-carboxylic acid] | 3 (3=41-60%) | 4 (4=61-80%) | 5 (5=81-100%) | 4 (4=61-80%) | 3 (3=41-60%) | 4 (4=61-80%) | 4 (4=61-80%) | 3 (3=41-60%) | 5 (5=81-100%) | 3 (3=41-60%) | 1 (1=0-20%) | 4 (4=61-80%) |
| CCn1cc(-c2cc(C(=O)OC(C)C)ccc2F)c(=O)c(C(=O)O)c1-c1ccc(Cl)c(Cl)c1 [Compound 8, 2-(3,4-dichlorophenyl)-1-ethyl-5-(2-fluoro-5-isopropoxycarbonyl-phenyl)-4-oxo-pyridine-3-carboxylic acid] | 5 (5=81-100%) | 5 (5=81-100%) | 4 (4=61-80%) | 3 (3=41-60%) | 3 (3=41-60%) | 3 (3=41-60%) | 3 (3=41-60%) | 3 (3=41-60%) | 5 (5=81-100%) | 1 (1=0-20%) | 1 (1=0-20%) | 3 (3=41-60%) |
| CCn1cc(-c2cccc(OC(F)(F)F)c2F)c(=O)c(C(=O)O)c1-c1ccc(Cl)c(Cl)c1 [Compound 11, 2-(3,4-dichlorophenyl)-1-ethyl-5-[2-fluoro-3-(trifluoromethoxy)phenyl]-4-oxo-pyridine-3-carboxylic acid] | 2 (2=21-40%) | 3 (3=41-60%) | 2 (2=21-40%) | 4 (4=61-80%) | 3 (3=41-60%) | 4 (4=61-80%) | 4 (4=61-80%) | 1 (1=0-20%) | 3 (3=41-60%) | 0 | 3 (3=41-60%) | 2 (2=21-40%) |

Source: patent US20260206753A1, “HERBICIDAL DERIVATIVES” (SYNGENTA CROP PROTECTION AG, priority 2022, published 2026)
